From patent US11999715B2, “ASK1 inhibiting agents” (BIOGEN MA INC., priority 2018, dated 2024)

Experiments:
ASK1/MAP3K5 = target: T1, ASK1/MAP3K5 (Homo sapiens, UniProt Q99683); assay: ASK1/MAP3K5 kinase assay by Reaction Biology Corp. (headed ASK1 TR-FRET Assay); assay type: biochemical; conditions: 20 μM myelin basic protein, 10 μM ATP, class symbols
T1 sequence (Q99683 1-1374): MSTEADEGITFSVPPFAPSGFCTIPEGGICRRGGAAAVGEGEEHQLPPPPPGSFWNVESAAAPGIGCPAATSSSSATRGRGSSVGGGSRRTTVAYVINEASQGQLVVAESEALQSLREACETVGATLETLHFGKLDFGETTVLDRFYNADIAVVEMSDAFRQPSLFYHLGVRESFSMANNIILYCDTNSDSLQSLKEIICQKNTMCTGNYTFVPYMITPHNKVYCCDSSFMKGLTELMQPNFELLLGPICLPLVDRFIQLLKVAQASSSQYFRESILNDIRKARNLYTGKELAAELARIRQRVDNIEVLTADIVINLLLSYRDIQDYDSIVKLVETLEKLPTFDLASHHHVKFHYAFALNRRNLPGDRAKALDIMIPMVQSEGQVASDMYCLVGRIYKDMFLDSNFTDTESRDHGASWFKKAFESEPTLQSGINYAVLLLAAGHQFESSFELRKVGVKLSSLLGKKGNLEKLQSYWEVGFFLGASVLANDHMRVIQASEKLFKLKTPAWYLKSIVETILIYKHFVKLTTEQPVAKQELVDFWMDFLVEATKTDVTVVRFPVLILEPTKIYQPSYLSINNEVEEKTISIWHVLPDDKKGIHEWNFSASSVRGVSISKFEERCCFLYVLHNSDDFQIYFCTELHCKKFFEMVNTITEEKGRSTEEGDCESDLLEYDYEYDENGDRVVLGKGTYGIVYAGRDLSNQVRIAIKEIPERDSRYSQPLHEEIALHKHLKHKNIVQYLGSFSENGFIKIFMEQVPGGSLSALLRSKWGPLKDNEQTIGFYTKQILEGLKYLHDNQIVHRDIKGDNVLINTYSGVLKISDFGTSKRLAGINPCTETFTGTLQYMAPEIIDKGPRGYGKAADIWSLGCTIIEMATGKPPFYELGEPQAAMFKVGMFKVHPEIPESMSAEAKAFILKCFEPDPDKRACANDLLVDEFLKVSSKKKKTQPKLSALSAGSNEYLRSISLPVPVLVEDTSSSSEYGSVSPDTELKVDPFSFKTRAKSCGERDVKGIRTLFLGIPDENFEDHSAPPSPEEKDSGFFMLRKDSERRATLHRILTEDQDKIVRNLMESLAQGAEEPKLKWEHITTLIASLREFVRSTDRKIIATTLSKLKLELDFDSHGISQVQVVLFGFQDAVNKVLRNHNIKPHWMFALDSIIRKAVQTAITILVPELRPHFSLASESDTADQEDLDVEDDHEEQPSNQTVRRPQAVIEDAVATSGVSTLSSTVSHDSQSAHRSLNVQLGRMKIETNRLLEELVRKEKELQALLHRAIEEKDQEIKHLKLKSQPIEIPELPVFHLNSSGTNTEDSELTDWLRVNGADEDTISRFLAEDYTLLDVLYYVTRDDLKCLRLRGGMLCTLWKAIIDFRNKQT
Protocol: Example 111: Brief Description of ASK1 TR-FRET Assay The protein kinase inhibitory activity of the compounds described herein were tested using the ASK1/MAP3K5 assay by Reaction Biology Corp. (Malvern, PA). The assay procedure follows (and is also available on the Reaction Biology Corp. website). Base Reaction Buffer: 20 mM Hepes (pH 7.5), 10 mM MgCl2, 1 mM EGTA, 0.02% Brij35, 0.02 mg/mL BSA, 0.1 mM Na3VO4, 2 mM DTT, 1% DMSO; Substrate: 20 μM of myelin basic protein (MBP) and 10 μM ATP; Protein kinase: ASK1/MAP3K5. Reaction Procedure: • 1. Prepare indicated substrate in freshly prepared Base Reaction Buffer. • 2. Deliver any required cofactors to the substrate solution. • 3. Deliver indicated kinase into the substrate solution and gently mix. • 4. Deliver compounds in DMSO into the kinase reaction mixture by Acoustic; technology (Echo550; nanoliter range), incubate for 20 minutes at room temperature. • 5. Deliver ^33P-ATP (specific activity 10 μCi/μL) into the reaction mixture to initiate the reaction. • 6. Incubate kinase reaction for 2 hours at room temperature. • 7. Reactions are spotted onto P81 ion exchange paper. • 8. Detect kinase activity by filter-binding method.

[1] = target: T2, ASK1 T838 auto phosphorylation (Homo sapiens, UniProt Q99683); assay: ASK1 (AUTO PHOS T838) assay, MSD format, in HEK-293T cells transfected with ASK1-V5; assay type: cell-based; conditions: ASK1 T838 auto phosphorylation in HEK-293T cells, 1 hr compound incubation; class symbols
T2 sequence (Q99683 1-1374): T1 sequence (Q99683 1-1374)
Protocol: Example 112: Brief Description of ASK1(AUTO PHOS T838) Assay ASK1 T838 auto phosphorylation was measured in HEK-293T cells using MSD assay format. HEK 293T cells were seeded in 15 cm plates at a density of 18 million cells and 20 mL DMEM with 10% FBS, Pen/Strep media. The plates were incubated at 37° C. overnight. Media on plates was changed to OPTI-MEM, serum free media and cells were transfected with 9 μg of ASK1-V5 tagged full length plasmid using Lipofectamine 2000 (Invitrogen) and the plates were incubated at 37° C. overnight. Cells were trypsinized, counted on Nexcellometer and plated into 96 well tissue culture plates with 100,000 cells/well and 200 μL media. Cells were incubated for 4 hr at 37° C. then ASK1 compounds were added using a HP 300e. Compounds were tested at 20 μM with 3 fold, 10 point dilution points then incubated for 1 hr at 37° C. A lysis buffer (Cell Signaling) was prepared with protease and phosphatase inhibitor and maintained at 4° C. until use. Media from cells was discarded and 120 μL of cold lysis buffer was added to the cells, the plate was shaken 4° C. for 1 hr. Lysate was mixed using Apricot liquid handler; aspirating up and down 16 times at high speed using 50 μL volume. […] Plates were then incubated on a plate shaker overnight at 4° C. Plates were washed 3× with MSD wash buffer and 50 μL of rabbit anti-pASK1 T838 antibody was added to the wells and incubated for 2 hr at room temperature on a plate shaker. Plates were then washed and 50 μL of goat anti-rabbit sulfa-tag (1:500 dilution) was added to wells, and incubated for 1 hr at room temperature on a plate shaker. […] Plates were immediately read on a MSD Instrument Reader where chemoluminescence signal was measured. Data was analyzed using Graph Pad or Genedata, the data was normalized and plotted, % activity versus log of compound concentration. The IC50 values were obtained from a 4 parameter fit. The compounds described herein were tested for in the above cell-based assay.

SMILES | IC50 (ASK1/MAP3K5) [nM] | IC50 [1] [nM]
COc1nn(C)cc1C(=O)Nc1cccc(-c2nncn2C2CCOCC2)n1 [Example 108, 3-Methoxy-1-methyl-N-(6-(4-(tetrahydro-2H-pyran-4-yl)-4H-1,2,4-triazol-3-yl)pyridin-2-yl)-1H-pyrazole-4-carboxamide] | 100 to 1000 | 1000 to 10000
Cc1cncc(-n2cc(C(=O)Nc3cccc(-c4cncn4C(C)C)n3)c(C(F)F)n2)c1 [Example 93, 3-(Difluoromethyl)-N-(6-(1-isopropyl-1H-imidazol-5-yl)pyridin-2-yl)-1-(5-methylpyridin-3-yl)-1H-pyrazole-4-carboxamide] | ≤ 100 | ≤ 1000
COc1nn(C)cc1C(=O)Nc1cccc(-c2nncn2[C@H](C)C(F)(F)F)n1 [Example 11, (R)-3-Methoxy-1-methyl-N-(6-(4-(1,1,1-trifluoropropan-2-yl)-4H-1,2,4-triazol-3-yl)pyridin-2-yl)-1H-pyrazole-4-carboxamide] | 100 to 1000 | ≤ 1000
COc1nn(C)cc1C(=O)Nc1cccc(-c2nncn2[C@H]2CCOC2)n1 (single isomer, unassigned) [Example 110] | ≤ 100 | ≤ 1000
COc1nn(-c2cncc(O)c2)cc1C(=O)Nc1cccc(-c2nncn2C(C)C)n1 [Example 70, 1-(5-Hydroxypyridin-3-yl)-N-(6-(4-isopropyl-4H-1,2,4-triazol-3-yl)pyridin-2-yl)-3-methoxy-1H-pyrazole-4-carboxamide] | ≤ 100 | 1000 to 10000
COc1nn(C)cc1C(=O)Nc1cccc(-c2nncn2[C@@H]2CCC2(F)F)n1 (single isomer, unassigned) [Example 32] | 100 to 1000 | ≤ 1000
COc1nn(CCN2CCOCC2)cc1C(=O)Nc1cccc(-c2nncn2C(C)C)n1 [Example 46, N-(6-(4-Isopropyl-4H-1,2,4-triazol-3-yl)pyridin-2-yl)-3-methoxy-1-(2-morpholinoethyl)-1H-pyrazole-4-carboxamide] | ≤ 100 | ≤ 1000
C=CCn1cc(C(=O)Nc2cccc(-c3nncn3C(C)C)n2)c(OC)n1 [Example 55, 1-Allyl-N-(6-(4-isopropyl-4H-1,2,4-triazol-3-yl)pyridin-2-yl)-3-methoxy-1H-pyrazole-4-carboxamide] | ≤ 100 | ≤ 1000
COc1nn(-c2cccnn2)cc1C(=O)Nc1cccc(-c2nncn2C(C)C)n1 [Example 84, N-(6-(4-Isopropyl-4H-1,2,4-triazol-3-yl)pyridin-2-yl)-3-methoxy-1-(pyridazin-3-yl)-1H-pyrazole-4-carboxamide] | ≤ 100 | ≤ 1000
CC(C)n1cncc1-c1cccc(NC(=O)c2cn(-c3cncc(C#N)c3)nc2C(F)F)n1 [Example 95, 1-(5-Cyanopyridin-3-yl)-3-(difluoromethyl)-N-(6-(1-isopropyl-1H-imidazol-5-yl)pyridin-2-yl)-1H-pyrazole-4-carboxamide] | ≤ 100 | ≤ 1000
COc1nn(C)cc1C(=O)Nc1cccc(-c2nncn2C(C)(C)C)n1 [Example 21, N-(6-(4-(tert-Butyl)-4H-1,2,4-triazol-3-yl)pyridin-2-yl)-3-methoxy-1-methyl-1H-pyrazole-4-carboxamide] | ≤ 100 | ≤ 1000
COc1nn(CC(F)(F)F)cc1C(=O)Nc1cccc(-c2nncn2C(C)C)n1 [Example 102, N-(6-(4-Isopropyl-4H-1,2,4-triazol-3-yl)pyridin-2-yl)-3-methoxy-1-(2,2,2-trifluoroethyl)-1H-pyrazole-4-carboxamide] | ≤ 100 | ≤ 1000
COc1nn(C)cc1C(=O)Nc1cccc(-c2nncn2[C@@H](C)C(C)C)n1 [Example 29, (S)-3-Methoxy-1-methyl-N-(6-(4-(3-methylbutan-2-yl)-4H-1,2,4-triazol-3-yl)pyridin-2-yl)-1H-pyrazole-4-carboxamide] | ≤ 100 | ≤ 1000
CC(C)n1cnnc1-c1cccc(NC(=O)c2cnn(C(C)(C)C)c2)n1 [Example 9, 1-(tert-Butyl)-N-(6-(4-isopropyl-4H-1,2,4-triazol-3-yl)pyridin-2-yl)-1H-pyrazole-4-carboxamide] | 100 to 1000 | ≤ 1000
COc1nn(-c2cnccn2)cc1C(=O)Nc1cccc(-c2nncn2[C@@H](C)C(F)(F)F)n1 [Example 87, (S)-3-Methoxy-1-(pyrazin-2-yl)-N-(6-(4-(1,1,1-trifluoropropan-2-yl)-4H-1,2,4-triazol-3-yl)pyridin-2-yl)-1H-pyrazole-4-carboxamide] | ≤ 100 | ≤ 1000
COc1nn(-c2cncc(OC(C)C)c2)cc1C(=O)Nc1cccc(-c2nncn2C(C)C)n1 [Example 72, 1-(5-Isopropoxypyridin-3-yl)-N-(6-(4-isopropyl-4H-1,2,4-triazol-3-yl)pyridin-2-yl)-3-methoxy-1H-pyrazole-4-carboxamide] | ≤ 100 | ≤ 1000
COc1nn(C)cc1C(=O)Nc1cccc(-c2nncn2C2CCC2(F)F)n1 (centres unmarked) [Example 30, N-(6-(4-(2,2-Difluorocyclobutyl)-4H-1,2,4-triazol-3-yl)pyridin-2-yl)-3-methoxy-1-methyl-1H-pyrazole-4-carboxamide] | ≤ 100 | ≤ 1000
COc1cncc(-n2cc(C(=O)Nc3cccc(-c4cncn4C(C)C)n3)c(C(F)F)n2)c1 [Example 97, 3-(Difluoromethyl)-N-(6-(1-isopropyl-1H-imidazol-5-yl)pyridin-2-yl)-1-(5-methoxypyridin-3-yl)-1H-pyrazole-4-carboxamide] | ≤ 100 | ≤ 1000
COc1nn(-c2cncc(C)c2)cc1C(=O)Nc1cccc(-c2nncn2C(C)C)n1 [Example 67, N-(6-(4-Isopropyl-4H-1,2,4-triazol-3-yl)pyridin-2-yl)-3-methoxy-1-(5-methylpyridin-3-yl)-1H-pyrazole-4-carboxamide] | ≤ 100 | ≤ 1000
